# Where two headings read alike, the source gives them in different places. *1 amine or outer side, *2 acyl side, *3 side chain or, on linkers, in order; H or OH if unused. Where a SMILES comes first, the peptide text is derived from it. Bridges are numbered along the chain shown (N, C = ends). [ ]: non-standard residue; d: D form. hPhe(3-Cl-4-CF3) = N[C@@H](CCc1ccc(C(F)(F)F)c(Cl)c1)C(=O)O; X4 = CCCN([C@@H](COCCC(C)C)C(=O)[*:2])[*:1]; NMeGly(cPent) = CN[C@H](C(=O)O)C1CCCC1; NMeD = CN[C@@H](CC(=O)O)C(=O)O; NMeL = CN[C@@H](CC(C)C)C(=O)O; NMeA = CN[C@@H](C)C(=O)O; Aze = O=C(O)[C@@H]1CCN1; Ac4c = NC1(C(=O)O)CCC1; Sar = CNCC(=O)O
# Experiments:
# [1] = test system: human lung cancer strain NCI-H441; conditions: read-out: NCI-H441 IC50; NCI-H441 cells, 4 days, CellTiter-Glo
# [2] = molecular target: GDP-bound KRAS wild-type protein (Homo sapiens, UniProt P01116); test: Binding to KRAS by surface plasmon resonance (SPR), Single Cycle Kinetics
# [3] = molecular target: GDP-bound NRAS wild-type protein (Homo sapiens, UniProt P01111); test: Binding to NRAS by surface plasmon resonance (SPR), Single Cycle Kinetics
# [4] = molecular target: GDP-bound HRAS wild-type protein (Homo sapiens, UniProt P01112); test: Binding to HRAS by surface plasmon resonance (SPR), Single Cycle Kinetics
# [5] = SPR Single Cycle Kinetics, GDP-bound KRAS wild-type protein, 1:1 binding model
# [6] = SPR, GDP-bound wild-type proteins
# Chain of GDP-bound HRAS wild-type protein (P01112 whole entry): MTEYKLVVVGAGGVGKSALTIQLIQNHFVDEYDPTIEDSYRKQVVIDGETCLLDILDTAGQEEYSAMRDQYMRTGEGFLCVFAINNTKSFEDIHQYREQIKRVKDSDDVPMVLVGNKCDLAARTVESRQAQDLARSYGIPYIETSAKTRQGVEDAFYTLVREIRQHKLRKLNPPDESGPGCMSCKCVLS
# Chain of GDP-bound NRAS wild-type protein (P01111 whole entry): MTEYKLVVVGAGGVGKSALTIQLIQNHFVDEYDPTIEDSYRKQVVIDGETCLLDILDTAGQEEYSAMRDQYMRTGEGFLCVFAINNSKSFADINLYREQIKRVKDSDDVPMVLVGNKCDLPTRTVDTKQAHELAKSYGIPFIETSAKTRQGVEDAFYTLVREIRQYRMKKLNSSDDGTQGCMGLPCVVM
compound,measurement,setting,value
CCO[C@@H]1C[C@H]2C(=O)NC3(CCC3)C(=O)N(C)[C@@H](C3CCCC3)C(=O)N(C)[C@H](C(=O)N(C)C)CC(=O)N(C)[C@@H](CC3CCCC3)C(=O)N[C@@H]([C@@H](C)CC)C(=O)N(C)CC(=O)N(C)[C@H]3C/C=C\CCN(C3=O)[C@@H](Cc3ccc(C(F)(F)F)cc3)C(=O)N(C)CC(=O)N[C@@H](CCc3ccc(C(F)(F)F)c(OC)c3)C(=O)N2C1 [PP1248],IC50,[1],7.3 nM
same,Kd,[2],0.069 nM
"CCCN1C(=O)[C@@H]2CCN2C(=O)[C@H](C)N(C)C(=O)[C@H]([C@@H](C)CC)NC(=O)[C@H](CC(C)C)N(C)C(=O)C[C@@H](C(=O)N(C)C)N(C)C(=O)[C@H](C2CCCC2)N(C)C(=O)C2(CCC2)NC(=O)[C@@H]2CCCN2C(=O)[C@H](CCc2ccc(C(F)(F)F)c(Cl)c2)NC(=O)CN(C)C(=O)[C@@H]1COCCC(C)C [PP1820, (3S,9S,12S,17S,20S,23S,27S,30S,36S)-3-[2-[3-chloro-4-(trifluoromethyl)phenyl]ethyl]30-cyclopentyl-23-isobutyl-9-(isopentyloxymethyl)-N,N,7,17,18,24,28,31-octamethyl-20-[(1S)-1-methylpropyl]-2,5,8,11,16,19,22,25,29,32,35-undecaoxo-10-propyl-spiro[1,4,7,10,15,18,21,24,28,31,34-undecazatricyclo[34.3.0.012,15]nonatriacontane-33,1′-cyclobutane]-27-carboxamide] ([NMeL]I[NMeA][Aze][X4][Sar][hPhe(3-Cl-4-CF3)]P[Ac4c][NMeGly(cPent)][NMeD]-NMe2; lactam N-11)",Kd,[2]; [5],0.6 nM
same,NRAS/KRAS (ratio of KD value for NRAS to KD value for KRAS),"[3]; KD ratio, GDP-bound NRAS wild-type vs GDP-bound KRAS wild-type, SPR",C (A compound having a KD ratio of 0.1 or more and less than 3 is denoted as C)
same,HRAS/KRAS (ratio of KD value for HRAS to KD value for KRAS),"[4]; KD ratio, GDP-bound HRAS wild-type vs GDP-bound KRAS wild-type, SPR",C (A compound having a KD ratio of 0.1 or more and less than 3 is denoted as C)
CCC[C@H]1C(=O)N[C@@H]([C@@H](C)CC)C(=O)N(C)CC(=O)N(C)[C@H]2C/C=C\CCN(C2=O)[C@@H](Cc2ccc(C(F)(F)F)cc2)C(=O)N(C)CC(=O)N[C@@H](CCc2cc(F)c(C(F)(F)F)c(F)c2)C(=O)N2C[C@H](OCC)C[C@H]2C(=O)NC2(CC(C)(C)C2)C(=O)N(C)[C@@H](CC(C)(C)C)C(=O)N(C)C(C(=O)N(C)C)CC(=O)N1C (some centres unmarked) [PP2730],Kd,"[2]; GDP-bound KRAS wild-type protein, SPR Single Cycle Kinetics, 1:1 binding model",0.065 nM
same,NRAS/KRAS (ratio of KD value with respect to GDP-bound NRAS wild-type protein to KD value with respect to KRAS),[3]; class symbols,A (a compound having 10 or more and less than 20 is denoted as A)
same,HRAS/KRAS (ratio of KD value with respect to GDP-bound HRAS wild-type protein to KD value with respect to KRAS),[4]; class symbols,A (a compound having 10 or more and less than 20 is denoted as A)
"CCC[C@H]1C(=O)N[C@@H]([C@@H](C)CC)C(=O)N(C2CC2)CC(=O)N(C)[C@H]2C/C=C\CCN(C2=O)[C@@H](Cc2ccc(C)cc2)C(=O)N(C)CC(=O)N[C@@H](CCc2cc(F)c(C(F)(F)F)c(F)c2)C(=O)N2C[C@H](OCC)C[C@H]2C(=O)N(C)C2(CCC2)C(=O)N(C)[C@@H](C2CCCC2)C(=O)N(C)[C@H](C(=O)N2CCCCC2)CC(=O)N1C [PP3111, (2S,8S,12R,14S,20S,23S,27S,30S,36S,38Z)-20-cyclopentyl-32-cyclopropyl-8-[2-[3,5-difluoro-4-(trifluoromethyl)phenyl]ethyl]-12-ethoxy-4,16,19,22,26,35-hexamethyl-30-[(1S)-1-methylpropyl]-23-(piperidine-1-carbonyl)-27-propyl-2-(p-tolylmethyl)spiro[1,4,7,10,16,19,22,26,29,32,35-undecazatricyclo[34.5.1.0^10,14]dotetracont-38-ene-17,1′-cyclobutane]-3,6,9,15,18,21,25,28,31,34,42-undecone]",Kd,[2]; [5],4.8 nM
same,NRAS/KRAS (ratio of KD value with respect to GDP-bound NRAS wild-type protein to KD value with respect to KRAS),[3]; [6],A (a compound having 10 or more and less than 20 is denoted as A)
same,HRAS/KRAS (ratio of KD value with respect to GDP-bound HRAS wild-type protein to KD value with respect to KRAS),[4]; [6],A (a compound having 10 or more and less than 20 is denoted as A)

# — US20250230193A1, “CYCLIC COMPOUND HAVING SELECTIVE KRAS INHIBITORY EFFECT ON HRAS AND NRAS” (CHUGAI SEIYAKU KABUSHIKI KAISHA, priority 2022, published 2025)
